Values after ≈ are worked out from the molar mass of the structure shown. Values joined by “and” are separate entries in the source; they are usually repeats but may differ in a detail not shown here. Identical values can stand only once. Like-named read-outs stand apart in the source and are kept apart here.
Experiments:
[1] = system: E. faecalis FA2–2ΔfabK; experiment: MIC against E. faecalis FA2-2 fabI+ (ΔfabK, possesses only FabI); assay type: cell-based, Enterococcus faecalis
Description: (§1) Compounds were twofold serially diluted (100–0.2 μg/mL) across a 96-well plate in 100 μL of media used for the specific organism (Table S4). For anaerobes, plates were incubated anaerobically at 37 °C for 1 h and then inoculated with approximately 10^5 to 10^6 CFU/well. Plates were incubated at 37 °C for up to 48 h, and MICs were read by visual inspection.

[2] = system: E. faecalis FA2–2; experiment: MIC against wild-type E. faecalis FA2-2 (FabI and FabK); assay type: cell-based, Enterococcus faecalis; details: E. faecalis FA2-2, possesses both FabI and FabK
Description: as §1

[3] = biological target: FnFabK (Fusobacterium nucleatum subsp. nucleatum, UniProt Q8RGV3); experiment: biochemical
Chain of FnFabK (Q8RGV3 entry or part of it): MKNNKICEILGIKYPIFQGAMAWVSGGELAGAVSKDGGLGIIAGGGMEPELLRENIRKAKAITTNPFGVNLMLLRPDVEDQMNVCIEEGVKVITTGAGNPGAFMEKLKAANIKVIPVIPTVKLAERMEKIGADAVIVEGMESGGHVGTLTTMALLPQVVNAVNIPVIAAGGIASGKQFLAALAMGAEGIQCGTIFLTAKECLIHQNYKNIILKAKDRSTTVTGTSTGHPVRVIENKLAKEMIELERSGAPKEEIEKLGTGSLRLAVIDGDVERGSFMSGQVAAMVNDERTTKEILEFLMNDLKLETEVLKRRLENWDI
Description: Incubation lasted for a total of 10 min before the addition of crotonyl-CoA substrate, and the reaction was initiated by the addition of NADH for a final assay volume of 100 μL. The oxidation of NADH to NAD+ was measured by tracking fluorescence (340 nm/460 nm) with a Biotek Synergy H1 microplate reader in 15 s intervals for a total of 10 min to monitor the rate of reaction. The reaction was conducted in Greiner Bio-One 384-well μClear Bottom Polystyrene Microplates. […] Measurements were conducted in triplicate, and IC50’s were calculated via GraphPad Prism 9.1.2 using four-parameter logistic (Hill) curve analysis using equation Y = bottom + (top – bottom)/[1 + 10 (Log IC50 – X) × Hill Slope], where X is the logarithm of the dose and Y is the response. The assay concentrations of the cofactor, NADH, and substrate, crotonyl-CoA, were also determined via GraphPad Prism 9.1.2 using the substrate inhibition model to determine Km(app).

[4] = system: Bacteroides ovatus; experiment: MIC, digestive tract panel; assay type: cell-based; details: ENR FabI/FabK
Description: as §1

[5] = system: Bifidobacterium breve; experiment: MIC, digestive tract panel; assay type: cell-based; details: Type I FAS
Description: as §1

[6] = system: Clostridium sp. MSTE9; experiment: MIC, digestive tract panel; assay type: cell-based; details: ENR FabK
Description: as §1

[7] = system: F. necrophorum 25286; experiment: MIC, digestive tract panel; assay type: cell-based; details: Fusobacterium necrophorum, ENR FabK
Description: as §1

[8] = system: F. nucleatum 25586; experiment: MIC, digestive tract panel; assay type: cell-based; details: Fusobacterium nucleatum, ENR FabK
Description: as §1

[9] = system: F. periodonticum 33693; experiment: MIC, digestive tract panel; assay type: cell-based; details: ENR FabK
Description: as §1

[10] = system: F. vincentii 49256; experiment: MIC, digestive tract panel; assay type: cell-based; details: ENR FabK
Description: as §1

[11] = system: P. gingivalis 33277; experiment: MIC, digestive tract panel; assay type: cell-based; details: Porphyromonas gingivalis, ENR FabK
Description: as §1

[12] = system: P. gingivalis F0185; experiment: MIC, digestive tract panel; assay type: cell-based; details: Porphyromonas gingivalis, ENR FabK
Description: as §1

[13] = system: P. gingivalis F0566; experiment: MIC, digestive tract panel; assay type: cell-based; details: Porphyromonas gingivalis, ENR FabK
Description: as §1

[14] = system: P. gingivalis F0569; experiment: MIC, digestive tract panel; assay type: cell-based; details: Porphyromonas gingivalis
Description: as §1

[15] = system: Propionibacterium acidifaciens; experiment: MIC, digestive tract panel; assay type: cell-based; details: ENR FabI
Description: as §1

[16] = system: Streptococcus downei; experiment: MIC, digestive tract panel; assay type: cell-based; details: ENR FabK
Description: as §1

[17] = system: Streptococcus mitis; experiment: MIC, digestive tract panel; assay type: cell-based; details: ENR FabK
Description: as §1

[18] = system: Streptococcus pyogenes; experiment: MIC, digestive tract panel; assay type: cell-based; details: ENR FabK
Description: as §1

[19] = system: Streptococcus salivarius; experiment: MIC, digestive tract panel; assay type: cell-based; details: ENR FabK
Description: as §1

[20] = system: Streptococcus sanguinis; experiment: MIC, digestive tract panel; assay type: cell-based; details: ENR FabK
Description: as §1

[21] = system: Streptococcus sp. CMW7705B; experiment: MIC, digestive tract panel; assay type: cell-based; details: ENR FabK
Description: as §1

[22] = system: S. pyogenes 19615; experiment: Growth in FAS-II inhibitor with or without exogenous fatty acids; assay type: cell-based, Streptococcus pyogenes; details: fatty acid mixture of Table S2
Description: (§2) To plates containing twofold serial dilutions of compounds, exponential phase cultures were added to a final OD600nm of 0.1. Plates containing F. nucleatum in Columbia broth were incubated at 37 °C inside of a Tecan Infinite 200 Pro, which was inside an anaerobic chamber; growth kinetics for Streptococcus spp. in brain heart infusion broth were done aerobically in the same Tecan instrument.

[23] = system: S. salivarius HM-121; experiment: as above; assay type: cell-based, Streptococcus salivarius; details: fatty acid mixture of Table S2
Description: as §2

[24] = system: CdFabK; parameters: method as in PMID 37224699; details: previously reported, cited from earlier work

CS(=O)(=O)c1ccc2nc(NC(=O)NCc3nc(-c4ccc(Br)cc4)c[nH]3)sc2c1 [Compound 681, 1-((4-(4-bromophenyl)-1H-imidazole-2-yl)methyl)-3-(6-(methylsulfonyl)benzo[d]thiazol-2-yl)urea]
MIC Ef fabI+ ([1]; E. faecalis FA2-2 ΔfabK, possesses only FabI): 100 µg/mL and >100 µg/mL | MIC ([1]; Enterococcus faecalis, read-out: MIC Ef fabI+, E. faecalis FA2-2 ΔfabK, possesses only FabI): > 100 µg/mL | MIC Ef wild-type [2]: 100 µg/mL and >100 µg/mL | MIC ([2]; Enterococcus faecalis, read-out: MIC Ef wild-type): > 100 µg/mL | IC50 ([3]; IC50 against FnFabK, equivalent concentration, conversion of the μM value): 1.97 µM | Hill coefficient (FnFabK inhibition) ([3]; four-parameter logistic fit): 1.01 | MIC [4]: >100 µg/mL | MIC ([4]; read-out: MIC): > 100 µg/mL | MIC [5]: >100 µg/mL | MIC ([5]; read-out: MIC): > 100 µg/mL | MIC [6]: > 100 µg/mL | MIC [7]: 6.3 to 12.5 µg/mL (≈ 12.4 to 24.7 µM) | MIC [8]: 0.8 µg/mL (≈ 1.58 µM) | MIC [9]: 0.8 µg/mL (≈ 1.58 µM) | MIC [10]: 1.6 µg/mL (≈ 3.16 µM) | MIC [11]: > 100 µg/mL | MIC [12]: 6.3 µg/mL (≈ 12.4 µM) | MIC [13]: 3.1 µg/mL (≈ 6.12 µM) | MIC [14]: > 100 µg/mL | MIC [15]: 6.3 µg/mL (≈ 12.4 µM) | MIC [16]: < 1.6 µg/mL | MIC [17]: < 1.6 µg/mL | MIC [18]: < 1.6 µg/mL | MIC [19]: < 1.6 µg/mL | MIC [20]: < 1.6 µg/mL | MIC [21]: < 1.6 µg/mL | Increase in biomass (OD600nm) in the presence of inhibitor and exogenous fatty acids [22]: 4–5 fold | Increase in biomass (OD600nm) in the presence of inhibitor and exogenous fatty acids [23]: twofold | IC50 against CdFabK, equivalent concentration [24]: 0.2 µg/mL | IC50 ([24]; read-out: IC50 against CdFabK): 0.45 µM

Reference: article PMC11091888, “Evaluation of Fusobacterium nucleatum Enoyl-ACP Reductase (FabK) as a Narrow-Spectrum Drug Target” (ACS Infectious Diseases, 2024)
